From DBAASP
In brackets after ≈: the same amount, converted by molar mass. Several values for one entry are separate records, joined by “and”; a condition that tells them apart may be missing. Identical values can stand only once.

Tests used:
Experiment in all cases: ≥ marks a high value that may be exact or a test limit, other limits are often not marked, values filed in µg/mL are converted to µM
[1] = tested on: Staphylococcus aureus ATCC 25923
[2] = tested on: Pseudomonas aeruginosa ATCC 27853
[3] = tested on: Escherichia coli ATCC 25922
[4] = tested on: Staphylococcus aureus ATCC 29213

| Structure (SMILES) | MIC [1] | MIC [2] [µM] | MIC [3] [µM] | MIC [4] [µM] |
| --- | --- | --- | --- | --- |
| NC(=O)[C@H](CCCN=C(N)N)NC(=O)[C@H](Cc1c[nH]c2ccccc12)NC(=O)[C@H](CCCN=C(N)N)NC(=O)[C@H](Cc1c[nH]c2ccccc12)NC(=O)[C@@H](N)CCCN=C(N)N [RWRWR] | 58.2 µM (≈ 49.9 µg/mL) | 58.2 (≈ 49.9 µg/mL) | 233 (≈ 200 µg/mL) |  |
| CC(C)C[C@H](NC(=O)[C@H](CO)NC(=O)[C@@H](N)CCCCN)C(=O)N[C@H](C(=O)N[C@@H](CCCN=C(N)N)C(=O)N[C@@H](CCCN=C(N)N)C(=O)N[C@@H](Cc1c[nH]c2ccccc12)C(=O)N[C@@H](CCCN=C(N)N)C(=O)N[C@@H](CO)C(=O)N[C@@H](CCCN=C(N)N)C(=O)N[C@@H](Cc1c[nH]c2ccccc12)C(N)=O)C(C)C [KSLVRRWRSRW] | 30 µM (≈ 45.9 µg/mL) | 40 (≈ 61.2 µg/mL) | 30 (≈ 45.9 µg/mL) |  |
| CSCC[C@H](NC(=O)[C@@H](N)CCCCN)C(=O)N[C@@H](CCCCN)C(=O)N[C@@H](CCCCN)C(=O)N[C@@H](C)C(=O)N[C@@H](CC(C)C)C(=O)N[C@@H](CCC(N)=O)C(=O)N[C@@H](Cc1ccc(O)cc1)C(N)=O [KMKKALQY] |  | > 100 | > 100 |  |
| CC(C)C[C@H](NC(=O)[C@H](CCCCN)NC(=O)[C@H](CC(C)C)NC(=O)[C@H](CC(C)C)NC(=O)[C@H](CCCCN)NC(=O)[C@H](CCCCN)NC(=O)[C@H](C)NC(=O)[C@H](CC(C)C)NC(=O)[C@H](CCCCN)NC(=O)[C@H](CC(C)C)NC(=O)[C@H](CC(C)C)NC(=O)[C@H](CCCCN)NC(=O)[C@H](CCCCN)NC(=O)[C@@H](N)CC(C)C)C(=O)N[C@@H](C)C(=O)NCC(=O)O [LKKLLKLAKKLLKLAG] |  |  | 5 (≈ 8.89 µg/mL) | 5 (≈ 8.89 µg/mL) |
| CC(C)C[C@H](NC(=O)[C@H](C)NC(=O)[C@H](Cc1ccc(O)cc1)NC(=O)[C@H](CC(C)C)NC(=O)[C@H](CCCN=C(N)N)NC(=O)[C@H](C)NC(=O)[C@H](CC(C)C)NC(=O)[C@H](CO)NC(=O)[C@H](C)NC(=O)[C@H](CC(C)C)NC(=O)[C@H](CC(=O)O)NC(=O)[C@H](CCCN=C(N)N)NC(=O)[C@H](CCCN=C(N)N)NC(=O)[C@H](CCCN=C(N)N)NC(=O)[C@H](CCC(=O)O)NC(=O)[C@H](CCC(=O)O)NC(=O)[C@H](CO)NC(=O)[C@@H](NC(=O)[C@H](CCC(N)=O)NC(=O)[C@H](Cc1ccc(O)cc1)NC(=O)[C@@H](N)Cc1ccc(O)cc1)C(C)C)C(=O)N[C@@H](C)C(=O)N[C@@H](CCCN=C(N)N)C(N)=O [YYQVSEERRRDLASLARLYALAR] |  |  | > 250 | > 250 |
| CC(C)C[C@H](NC(=O)[C@H](Cc1ccccc1)NC(=O)[C@H](C)NC(=O)CNC(=O)[C@H](Cc1c[nH]c2ccccc12)NC(=O)[C@H](CC(N)=O)NC(=O)[C@@H](N)CC(C)C)C(=O)N[C@@H](CCCCN)C(=O)N[C@@H](Cc1cnc[nH]1)C(=O)N[C@@H](Cc1ccccc1)C(=O)N[C@@H](Cc1ccccc1)C(=O)N[C@@H](CCCCN)C(=O)O [LNWGAFLKHFFK] |  | 32 (≈ 48.2 µg/mL) |  |  |
| CC[C@H](C)[C@H](NC(=O)[C@H](CCCN=C(N)N)NC(=O)[C@H](CCC(N)=O)NC(=O)[C@@H](NC(=O)[C@@H](NC(=O)[C@H](CCCN=C(N)N)NC(=O)[C@H](CCCCN)NC(=O)[C@@H](N)Cc1ccccc1)[C@@H](C)CC)C(C)C)C(=O)N[C@@H](CCCCN)C(=O)N[C@@H](CC(=O)O)C(=O)N[C@@H](CCC(N)=O)C(=O)N[C@@H](CC(C)C)C(=O)N[C@@H](CCCN=C(N)N)C(=O)O [FKRIVQRIKDQLR] |  |  | 10 (≈ 17 µg/mL) | > 40 |
| CC[C@H](C)[C@H](NC(=O)[C@H](CCCN=C(N)N)NC(=O)[C@H](CCC(N)=O)NC(=O)[C@@H](NC(=O)[C@@H](NC(=O)[C@H](CCCN=C(N)N)NC(=O)[C@H](CCCCN)NC(=O)[C@H](C)N)[C@@H](C)CC)C(C)C)C(=O)N[C@@H](CCCCN)C(=O)N[C@@H](CC(=O)O)C(=O)N[C@@H](Cc1ccccc1)C(=O)N[C@@H](CC(C)C)C(=O)N[C@@H](CCCN=C(N)N)C(=O)O [AKRIVQRIKDFLR] |  |  | 10 (≈ 16.4 µg/mL) | > 40 |
| CC[C@H](C)[C@H](NC(=O)[C@H](Cc1ccc(O)cc1)NC(=O)[C@H](CCC(N)=O)NC(=O)[C@H](CC(C)C)NC(=O)[C@H](C)NC(=O)[C@H](CCCCN)NC(=O)[C@H](CCCCN)NC(=O)[C@@H](N)CCSC)C(=O)N[C@@H](CCCCN)C(=O)N[C@@H](CC(C)C)C(=O)N[C@@H](CC(C)C)C(=O)N[C@@H](CCCCN)C(=O)N[C@@H](CCC(=O)O)C(N)=O [MKKALQYIKLLKE] |  | > 100 | > 100 |  |
| CC(C)C[C@H](NC(=O)[C@H](CCCCN)NC(=O)[C@H](C)NC(=O)[C@H](CC(C)C)NC(=O)[C@H](CCCCN)NC(=O)[C@H](CCCCN)NC(=O)[C@H](CC(C)C)NC(=O)[C@H](CC(C)C)NC(=O)[C@H](CCCCN)NC(=O)[C@H](CC(C)C)NC(=O)[C@H](CC(C)C)NC(=O)[C@H](CCCCN)NC(=O)[C@H](CCCCN)NC(=O)[C@@H](N)CC(C)C)C(=O)N[C@@H](C)C(=O)NCC(=O)O [LKKLLKLLKKLAKLAG] |  |  | 10 (≈ 17.8 µg/mL) | 10 (≈ 17.8 µg/mL) |
| CC[C@H](C)[C@H](NC(=O)[C@H](CCCCN)NC(=O)[C@H](CO)NC(=O)[C@H](C)NC(=O)[C@H](Cc1c[nH]c2ccccc12)NC(=O)CN)C(=O)NCC(=O)N[C@H](C(=O)N[C@@H](CCC(N)=O)C(=O)N[C@@H](CC(C)C)C(=O)NCC(=O)N[C@@H](CCCCN)C(=O)N[C@@H](CCSC)C(=O)N[C@@H](C)C(=O)N[C@@H](CCCCN)C(=O)N[C@H](C(=O)NCC(=O)N[C@@H](CC(C)C)C(=O)N[C@@H](CCCCN)C(=O)N[C@@H](CCC(=O)O)C(=O)N[C@@H](Cc1ccccc1)C(=O)N[C@H](C(=O)N[C@@H](CCC(N)=O)C(=O)N[C@@H](CO)C(=O)O)C(C)C)C(C)C)[C@@H](C)O [GWASKIGTQLGKMAKVGLKEFVQS] | 25 µM (≈ 64.1 µg/mL) |  | 100 (≈ 256 µg/mL) |  |
| CC[C@H](C)[C@H](NC(=O)[C@H](CCCCN)NC(=O)[C@H](C)NC(=O)[C@H](CCSC)NC(=O)[C@@H](NC(=O)[C@H](CCCCN)NC(=O)[C@H](CC(C)C)NC(=O)[C@H](Cc1ccccc1)NC(=O)[C@@H](NC(=O)[C@H](CC(=O)O)NC(=O)CNC(=O)[C@H](Cc1c[nH]c2ccccc12)NC(=O)CN)[C@@H](C)O)[C@@H](C)O)C(=O)N[C@@H](C)C(=O)N[C@@H](CCCCN)C(=O)N[C@H](C(=O)NCC(=O)N1CCC[C@H]1C(=O)N[C@@H](CCCCN)C(=O)N[C@@H](CC(C)C)C(=O)N[C@@H](CC(C)C)C(=O)N[C@@H](Cc1cnc[nH]1)C(=O)N[C@@H](CO)C(=O)O)C(C)C [GWGDTFLKTMAKIAKVGPKLLHS] | > 64 µM and 32 µM |  |  |  |
| C[C@H](NC(=O)[C@H](Cc1ccccc1)NC(=O)[C@H](C)NC(=O)[C@H](Cc1ccccc1)NC(=O)[C@H](CCCCN)NC(=O)[C@H](C)NC(=O)[C@H](Cc1ccccc1)NC(=O)[C@H](CCCCN)NC(=O)[C@H](CCCCN)NC(=O)[C@H](C)NC(=O)[C@H](Cc1ccccc1)NC(=O)[C@H](CCCCN)NC(=O)[C@H](CCCCN)NC(=O)[C@H](Cc1ccccc1)NC(=O)[C@H](CCCCN)NC(=O)[C@H](CCCCN)NC(=O)[C@H](C)NC(=O)[C@H](Cc1ccccc1)NC(=O)[C@H](CCCCN)NC(=O)[C@H](CCCCN)NC(=O)[C@H](C)NC(=O)[C@@H](N)Cc1ccccc1)C(=O)N[C@@H](Cc1ccccc1)C(N)=O [FAKKFAKKFKKFAKKFAKFAFAF] | 1.44 µM (≈ 4 µg/mL) | 1.44 (≈ 4 µg/mL) | 1.44 (≈ 4 µg/mL) |  |
| CC[C@H](C)[C@H](NC(=O)[C@H](C)NC(=O)CNC(=O)[C@H](Cc1c[nH]c2ccccc12)NC(=O)[C@H](CC(N)=O)NC(=O)[C@@H](N)CC(C)C)C(=O)N[C@@H](CCCCN)C(=O)N[C@@H](CCCCN)C(=O)N[C@@H](Cc1cnc[nH]1)C(=O)N[C@H](C(=O)N[C@H](C(=O)N[C@@H](CCCCN)C(=O)O)[C@@H](C)CC)[C@@H](C)CC [LNWGAIKKHIIK] |  | 16 (≈ 22.7 µg/mL) |  |  |
